Reference: ChEMBL document CHEMBL1201862, “PubChem BioAssay data set” (2004)
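All cell lines were grown in 96-well plates and treated with compound for 48 hours. GI50 is the concentration that inhibits growth by half.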 Calls of active or inactive are those of the source. Cut-off read from the data, not from the text of the source: active = GI50 up to about 1.1 µM and inactive = higher.

What was measured:
Assay in all cases: DTP human tumour cell line panel, 48 h
SNB-19 = tested on: SNB-19
Hs-578T = tested on: Hs-578T
SF-539 = tested on: SF-539
HT-29 = tested on: HT-29
NCI-H460 = tested on: NCI-H460
HOP-62 = tested on: HOP-62
SF-268 = tested on: SF-268
OVCAR-3 = tested on: OVCAR-3
CAKI-1 = tested on: CAKI-1
OVCAR-4 = tested on: OVCAR-4
ACHN = tested on: ACHN
NCI-H23 = tested on: NCI-H23
K562 = tested on: K562
NCI-H522 = tested on: NCI-H522
U-251 = tested on: U-251
NCI/ADR-RES = tested on: NCI/ADR-RES
RXF 393 = tested on: RXF 393
OVCAR-5 = tested on: OVCAR-5
EKVX = tested on: EKVX
SK-MEL-2 = tested on: SK-MEL-2
DU-145 = tested on: DU-145
MOLT-4 = tested on: MOLT-4
COLO 205 = tested on: COLO 205
SNB-75 = tested on: SNB-75
RPMI-8226 = tested on: RPMI-8226
SW-620 = tested on: SW-620
HCT-116 = tested on: HCT-116
UACC-62 = tested on: UACC-62
SF-295 = tested on: SF-295
NCI-H226 = tested on: NCI-H226
SK-OV-3 = tested on: SK-OV-3
SK-MEL-28 = tested on: SK-MEL-28
786-0 = tested on: 786-0
PC-3 = tested on: PC-3
HOP-92 = tested on: HOP-92
LOX IMVI = tested on: LOX IMVI
MDA-MB-231 = tested on: MDA-MB-231
SK-MEL-5 = tested on: SK-MEL-5
IGROV-1 = tested on: IGROV-1
UACC-257 = tested on: UACC-257
T47D = tested on: T47D
CCRF-CEM = tested on: CCRF-CEM
SN12C = tested on: SN12C
HCT-15 = tested on: HCT-15
KM12 = tested on: KM12
A549 = tested on: A549
MCF7 = tested on: MCF7
MDA-MB-435 = tested on: MDA-MB-435
BT-549 = tested on: BT-549
OVCAR-8 = tested on: OVCAR-8
SR = tested on: SR
A498 = tested on: A498
Malme-3M = tested on: Malme-3M
HL-60 = tested on: HL-60
MDA-N = tested on: MDA-N
TK-10 = tested on: TK-10
M14 = tested on: M14
UO-31 = tested on: UO-31

## CC/N=C(\N)CSS(=O)(=O)O
SNB-19
  GI50: > 100 µM (inactive)
Hs-578T
  GI50: > 100 µM (inactive)
SF-539
  GI50: > 100 µM (inactive)
HT-29
  GI50: > 100 µM (inactive)
NCI-H460
  GI50: 77.3 µM (inactive)
HOP-62
  GI50: > 100 µM (inactive)
SF-268
  GI50: > 100 µM (inactive)
OVCAR-3
  GI50: > 100 µM (inactive)
CAKI-1
  GI50: > 100 µM (inactive)
OVCAR-4
  GI50: > 100 µM (inactive)
ACHN
  GI50: > 100 µM (inactive)
NCI-H23
  GI50: > 100 µM (inactive)
K562
  GI50: > 100 µM (inactive)
NCI-H522
  GI50: > 100 µM (inactive)
U-251
  GI50: 71.1 µM (inactive)
NCI/ADR-RES
  GI50: > 100 µM (inactive)
RXF 393
  GI50: > 100 µM (inactive)
OVCAR-5
  GI50: > 100 µM (inactive)
EKVX
  GI50: > 100 µM (inactive)
SK-MEL-2
  GI50: > 100 µM (inactive)
DU-145
  GI50: > 100 µM (inactive)
MOLT-4
  GI50: 34.6 µM (inactive)
COLO 205
  GI50: > 100 µM (inactive)
SNB-75
  GI50: > 100 µM (inactive)
RPMI-8226
  GI50: > 100 µM (inactive)
SW-620
  GI50: > 100 µM (inactive)
HCT-116
  GI50: > 100 µM (inactive)
UACC-62
  GI50: > 100 µM (inactive)
SF-295
  GI50: > 100 µM (inactive)
NCI-H226
  GI50: > 100 µM (inactive)
SK-OV-3
  GI50: > 100 µM (inactive)
SK-MEL-28
  GI50: > 100 µM (inactive)
786-0
  GI50: > 100 µM (inactive)
PC-3
  GI50: > 100 µM (inactive)
HOP-92
  GI50: > 100 µM (inactive)
LOX IMVI
  GI50: 38.3 µM (inactive)
MDA-MB-231
  GI50: > 100 µM (inactive)
SK-MEL-5
  GI50: > 100 µM (inactive)
IGROV-1
  GI50: > 100 µM (inactive)
UACC-257
  GI50: > 100 µM (inactive)
T47D
  GI50: > 100 µM (inactive)
CCRF-CEM
  GI50: > 100 µM (inactive)
SN12C
  GI50: > 100 µM (inactive)
HCT-15
  GI50: > 100 µM
KM12
  GI50: > 100 µM (inactive)
A549
  GI50: > 100 µM (inactive)
MCF7
  GI50: > 100 µM (inactive)
MDA-MB-435
  GI50: > 100 µM (inactive)
BT-549
  GI50: > 100 µM (inactive)
OVCAR-8
  GI50: > 100 µM (inactive)
SR
  GI50: 36.5 µM (inactive)
A498
  GI50: > 100 µM (inactive)
Malme-3M
  GI50: > 100 µM (inactive)
HL-60
  GI50: > 100 µM (inactive)
MDA-N
  GI50: > 100 µM (inactive)
TK-10
  GI50: > 100 µM (inactive)
M14
  GI50: > 100 µM (inactive)

## CCNC(=S)N/N=C/c1ccccn1
SNB-19
  GI50: 19.6 µM (inactive)
Hs-578T
  GI50: > 100 µM (inactive)
SF-539
  GI50: 6.7 µM (inactive)
HT-29
  GI50: 4.47 µM (inactive)
NCI-H460
  GI50: 4.94 µM (inactive)
HOP-62
  GI50: 6.12 µM (inactive)
SF-268
  GI50: 2.4 µM (inactive)
OVCAR-3
  GI50: 0.729 µM (active)
OVCAR-4
  GI50: 1.29 µM (inactive)
ACHN
  GI50: 5.69 µM (inactive)
NCI-H23
  GI50: 6.56 µM (inactive)
K562
  GI50: 2.86 µM (inactive)
UO-31
  GI50: 2.44 µM (inactive)
NCI-H522
  GI50: 0.579 µM (active)
U-251
  GI50: 6.55 µM (inactive)
NCI/ADR-RES
  GI50: 6.95 µM (inactive)
RXF 393
  GI50: 19 µM (inactive)
OVCAR-5
  GI50: 15.4 µM (inactive)
EKVX
  GI50: 4.54 µM (inactive)
SK-MEL-2
  GI50: 42.2 µM (inactive)
DU-145
  GI50: 7.13 µM (inactive)
MOLT-4
  GI50: 1.58 µM (inactive)
COLO 205
  GI50: 3.24 µM (inactive)
SNB-75
  GI50: 62.2 µM (inactive)
SW-620
  GI50: 6 µM (inactive)
HCT-116
  GI50: 8.93 µM (inactive)
UACC-62
  GI50: 9.98 µM (inactive)
SF-295
  GI50: 7.14 µM (inactive)
NCI-H226
  GI50: 3.83 µM (inactive)
SK-OV-3
  GI50: 5.07 µM (inactive)
SK-MEL-28
  GI50: 16.7 µM (inactive)
786-0
  GI50: 5.81 µM (inactive)
PC-3
  GI50: 6.95 µM (inactive)
LOX IMVI
  GI50: 7.18 µM (inactive)
MDA-MB-231
  GI50: 7.05 µM (inactive)
SK-MEL-5
  GI50: 3.95 µM (inactive)
IGROV-1
  GI50: 5.11 µM (inactive)
UACC-257
  GI50: 6.65 µM (inactive)
T47D
  GI50: 1.98 µM (inactive)
CCRF-CEM
  GI50: 0.957 µM (active)
SN12C
  GI50: 4.97 µM (inactive)
HCT-15
  GI50: 6.64 µM
KM12
  GI50: 8.67 µM (inactive)
A549
  GI50: 7.62 µM (inactive)
MCF7
  GI50: 3.27 µM (inactive)
MDA-MB-435
  GI50: 16.3 µM (inactive)
BT-549
  GI50: 20.9 µM (inactive)
OVCAR-8
  GI50: 3.3 µM (inactive)
SR
  GI50: > 100 µM (inactive)
A498
  GI50: 5.09 µM (inactive)
Malme-3M
  GI50: 5.78 µM (inactive)
HL-60
  GI50: 3.74 µM (inactive)
MDA-N
  GI50: 27.7 µM (inactive)
TK-10
  GI50: 25.2 µM (inactive)
M14
  GI50: 9.4 µM (inactive)
